Assay results reported in US20020137774A1, “Carboxyaryl substituted diphenyl ureas as raf kinase inhibitors” (BAYER CORPORATION, priority 1999, published 2002).

`COC(=O)c1ccc(Oc2ccc(NC(=O)Nc3ccc(Cl)c(C(F)(F)F)c3)cc2)cn1` [Entry 55, N-(4-chloro-3-(trifluoromethyl)phenyl)-N′-(4-(2-(methoxycarbonyl)-5-pyridyloxy)phenyl) urea] gave a melting point of 228 to 230 °C.
